Test results taken from patent US9346832B2, “Gold complexes for use in the treatment of cancer” (University of Kwazulu-Natal, priority 2010, dated 2016).
Where two headings read alike, the source gives them in different places.

Tests used:
[1] = test system: 60 human cancer cell lines; experiment: NCI-60 one-dose screen; type: cell-based; details: single dose 10 μM
Procedure: (§1) The gold(III) complexes of this invention were screened by the National Cancer Institute (NCI, USA) against their panel of 60 different human cancer cell lines. These screens initially entail a one-dose test for the compound at a high concentration (10 μM; e.g. FIGS. 5, 6 and 7). Compounds with a good cytotoxicity profile in the one-dose screen are then subjected to a five-dose screen for the full panel of sixty human cancer cell lines (the so-called 5-dose NCI-60 screen). In the full five-dose screen, the compound concentration is varied in five doses from 10^−8 M to 10^−4 M in order to establish a dose-response function of percentage cell growth versus the concentration of the test agent. […] Similar data will shortly be available for compounds 1.1Y^1b and 1.5Y^1a as these derivatives are in 5-dose screens currently at the NCI.
The results of one-dose NCI-60 screens are noteworthy and merit some discussion as they quickly indicate activity profiles, cell-line specificity, and general cytotoxicity for the test agents across multiple human cancer cell lines. FIGS. 5, 6, and 7 set out the one-dose screening results for MA_AuPr (FIG. 5), KA_AumacroPr (FIG. 6), and KA_AuMelmPr (FIG. 7) obtained by the NCI. These three compounds are the parent derivatives that are representative of the three new types of gold(III) Schiff base chelate relevant to this invention. All other compounds synthesized as part of this invention have been similarly analyzed.

[2] = test system: panel of human cancer cell lines; details: cited from earlier work
[3] = test system: 3LL tumor (Lewis lung carcinoma); experiment: 3LL tumor growth in black mice; details: 20 days, 26 μmol/kg once weekly
[4] = test system: 60 human cancer cell lines; details: comparison drugs, NCI database, mean over 60 cell lines, cited from earlier work
topoisomerase I = biological target: T1, topoisomerase I (Homo sapiens, UniProt P11387); experiment: Supercoiled plasmid DNA relaxation assay with human topoisomerase I; type: biochemical
T1 sequence (P11387 1-765): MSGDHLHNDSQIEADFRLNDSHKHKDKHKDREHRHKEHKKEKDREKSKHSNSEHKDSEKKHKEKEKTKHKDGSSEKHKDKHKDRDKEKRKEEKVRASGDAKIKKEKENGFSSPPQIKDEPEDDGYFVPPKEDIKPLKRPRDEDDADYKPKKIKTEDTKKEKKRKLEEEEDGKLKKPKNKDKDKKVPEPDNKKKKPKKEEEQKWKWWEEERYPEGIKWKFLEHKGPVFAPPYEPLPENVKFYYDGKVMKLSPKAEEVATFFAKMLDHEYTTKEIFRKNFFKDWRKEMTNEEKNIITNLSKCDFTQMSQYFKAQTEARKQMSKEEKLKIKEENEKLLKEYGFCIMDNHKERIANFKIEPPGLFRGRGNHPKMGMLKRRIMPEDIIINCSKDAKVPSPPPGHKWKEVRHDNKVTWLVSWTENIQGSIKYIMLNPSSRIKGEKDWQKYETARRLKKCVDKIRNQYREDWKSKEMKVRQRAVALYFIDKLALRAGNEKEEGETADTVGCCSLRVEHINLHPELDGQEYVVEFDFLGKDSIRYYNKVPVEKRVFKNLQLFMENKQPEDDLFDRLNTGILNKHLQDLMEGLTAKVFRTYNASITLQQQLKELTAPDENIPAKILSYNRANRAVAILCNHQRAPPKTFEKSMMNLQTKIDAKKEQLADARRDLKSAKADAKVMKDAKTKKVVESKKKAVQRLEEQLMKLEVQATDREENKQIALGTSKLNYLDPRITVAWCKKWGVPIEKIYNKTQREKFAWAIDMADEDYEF
Procedure: FIG. 19 is a photograph of a gel showing the inhibition of human topoisomerase I by KA_AumacroPr as determined by supercoiled plasmid DNA relaxation assay (agarose gel electrophoresis).
Lanes 2-12 have 5U of topoisomerase I. The enzyme fully relaxes supercoiled (SC) DNA in lanes 3-8 for KA_AumacroPr concentrations ranging from 0-50 nM.
This is consistent with strong intercalative binding of KA_AumacroPr to the plasmid DNA probably before and after the action of topoisomerase I, and consequently inhibition of its normal turnover cycle.

[5] = biological target: topoisomerase II (topo II) (Homo sapiens, UniProt P11388); experiment: Topoisomerase II (topo II) DNA cleavage assay with kinetoplast DNA, agarose gel; type: biochemical
Procedure: FIG. 18 is a photograph of an agarose gel electrophoresis topoisomerase II (topo II) DNA cleavage assay (66 ng kinetoplast DNA, 4 U topo II) as a function of the concentration of KA_AumacroPr (complex 1.1Y^1a) (top) and a graph of a standard dose-response function fit of the experimental titration data (top gel) with (solid line) and without (dashed line) a Hill coefficient. The maximum ESD from triplicate measurements is shown (15%). Lanes 1-4 of the gel contain catenated DNA (no topo II), decatenated DNA (topo II present), decatenated DNA (solvent control), and linear DNA, respectively. The lane marked VP-16 contained DNA, topo II, and etoposide (VP-16). Band labels: I, catenated DNA; II, open-circular (OC) DNA; III, linear DNA; IV, closed-covalently circular (CCC) DNA. […]
The topo II inhibition assay for the Au(III) macrocycle KA_AumacroPr is shown above in FIG. 18.

calf thymus DNA = experiment: Calf-thymus DNA titration (absorption hypochroism); type: binding
Procedure: FIG. 20 is a graph of the titration of MA_AuPr (1.1a) with calf-thymus DNA in aqueous pH 7 phosphate buffer at 37° C.
The hypochroism of the absorption band of the complex at 383 nm was monitored as a function of added ctDNA. […] Ka is the equilibrium binding constant in M^−1, Ct is the total Au(III) complex concentration, and s is the binding site size.

[6] = test system: 60 human cancer cell lines; experiment: NCI-60 five-dose screen, mean cytotoxicity over 60 human cancer cell lines; type: cell-based; details: mean over 60 human cancer cell lines
Procedure: as §1
The mean cytotoxicity data summarized in Scheme 7 were compiled over 60 human cancer cell lines from the NCI database. […] The dose-response curves for the bis(pyrrolide-imine) chelates of the invention are steeper, or harder, than those of all the compounds compared in Scheme 7.

human cancer cell lines = experiment: Cytotoxicity summary (NCI-60 or independent cytotoxicity screen), Scheme 19; type: cell-based
HeLa cells = experiment: HeLa cell cytotoxicity dose-response; type: cell-based
Procedure: FIG. 9 is a graph of the dose-response curves (HeLa cells, pH 7.0, 37° C.) for three macrocyclic Au(III) chelates. IC50 values for the complexes against HeLa cells obtained from the least squares data fits (graph) are given in the 3rd column of the table.
A summary of the average cytotoxicity data over 60 human cancer cell lines for 1.1a-1.1c and comparison with selected commercial and patented cytotoxic agents is shown in Scheme 7. […] The more abrupt the curve, the harder the dose-response function.

[7] = Hydrolysis in aqueous solution; type: physicochemical; details: aqueous / phosphate buffered aqueous solutions
Description: This is why binding to DNA of the intact chelate occurs (FIGS. 14 and 20). However, it is noteworthy that hydrolysis of a Au(III)-Npyrrole bond is a reaction that may be catalyzed by enzymes in plasma and could account for the plasma instability of MA_AuPr.

Sequence of topoisomerase II (topo II) (P11388 whole entry): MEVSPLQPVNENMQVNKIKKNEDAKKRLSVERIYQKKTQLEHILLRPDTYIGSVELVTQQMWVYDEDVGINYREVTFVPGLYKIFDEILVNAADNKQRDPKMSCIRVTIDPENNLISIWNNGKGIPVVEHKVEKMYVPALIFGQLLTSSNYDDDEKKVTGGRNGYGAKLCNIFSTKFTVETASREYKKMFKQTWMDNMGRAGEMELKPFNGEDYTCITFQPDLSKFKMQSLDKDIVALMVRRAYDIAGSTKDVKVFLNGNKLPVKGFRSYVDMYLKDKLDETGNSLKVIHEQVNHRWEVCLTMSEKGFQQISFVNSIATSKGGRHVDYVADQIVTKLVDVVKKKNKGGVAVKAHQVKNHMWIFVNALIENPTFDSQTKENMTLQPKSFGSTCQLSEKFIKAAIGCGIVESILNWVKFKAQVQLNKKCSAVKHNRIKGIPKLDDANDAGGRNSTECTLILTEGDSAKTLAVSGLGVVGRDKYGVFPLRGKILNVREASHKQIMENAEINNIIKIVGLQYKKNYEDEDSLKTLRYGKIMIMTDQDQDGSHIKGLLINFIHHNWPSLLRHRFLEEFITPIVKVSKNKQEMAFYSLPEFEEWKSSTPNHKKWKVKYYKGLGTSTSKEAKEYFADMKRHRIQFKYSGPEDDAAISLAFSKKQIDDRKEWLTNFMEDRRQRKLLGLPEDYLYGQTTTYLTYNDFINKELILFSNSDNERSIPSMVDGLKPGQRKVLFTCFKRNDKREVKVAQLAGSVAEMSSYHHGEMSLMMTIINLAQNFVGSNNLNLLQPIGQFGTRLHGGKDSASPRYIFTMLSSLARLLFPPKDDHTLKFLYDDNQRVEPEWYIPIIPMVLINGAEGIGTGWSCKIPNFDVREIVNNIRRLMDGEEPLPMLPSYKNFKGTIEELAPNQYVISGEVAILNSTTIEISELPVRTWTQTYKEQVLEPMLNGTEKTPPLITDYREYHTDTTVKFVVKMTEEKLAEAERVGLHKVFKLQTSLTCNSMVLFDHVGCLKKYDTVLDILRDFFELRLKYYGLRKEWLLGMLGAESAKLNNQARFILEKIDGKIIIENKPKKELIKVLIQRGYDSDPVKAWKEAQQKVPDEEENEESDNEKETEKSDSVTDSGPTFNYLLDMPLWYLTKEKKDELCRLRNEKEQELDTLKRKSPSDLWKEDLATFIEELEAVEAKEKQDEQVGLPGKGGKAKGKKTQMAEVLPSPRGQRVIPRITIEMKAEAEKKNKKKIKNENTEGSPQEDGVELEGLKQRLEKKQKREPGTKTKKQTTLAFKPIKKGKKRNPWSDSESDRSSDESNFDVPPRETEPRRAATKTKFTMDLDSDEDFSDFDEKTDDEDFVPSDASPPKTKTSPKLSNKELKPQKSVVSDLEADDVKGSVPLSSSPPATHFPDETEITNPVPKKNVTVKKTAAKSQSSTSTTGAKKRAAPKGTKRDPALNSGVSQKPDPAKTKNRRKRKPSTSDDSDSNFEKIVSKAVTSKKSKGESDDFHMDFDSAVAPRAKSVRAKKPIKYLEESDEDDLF

4,4′-{propane-1,3-diylbis[nitrilo(E)methylylide]}bis(5-methylimidazol-1-ide)gold(III) hexafluorophosphate(V) [KA_AuMelmPr]
one-dose screening result [1]: Breast and leukemia cell lines were, as a group, the most sensitive

C1=Cc2nc1c(-c1ccccc1)c1ccc([nH]1)c(-c1ccccc1)c1nc(c(-c3ccccc3)c3ccc([nH]3)c2-c2ccccc2)C=C1 [[Zn^II(TPP)]]
IC50 ([2]; literature values): > 50 µM

N.N.[Cl][Pt][Cl] [cisplatin, cis-[PtCl2(NH3)2]]
reduction of 3LL tumor growth rate [3]: 76% | GI50 ([4]; 50% growth inhibition): 2000 nM | IC50 ([4]; read-out: TGI or IC50, total growth inhibition): 27 µM

C1=[N+]2CCC[N+]3=Cc4ccc5[n]4[Au-]23[n]2c1ccc2-c1nc2ccccc2nc1-5.F[P-](F)(F)(F)(F)F [KA_AumacroPr, {12,13-dihydro-14H-6,9:17,20-diepimino[1,6]diazacyclo-heptadecino[12,13-β]quinoxalinato}gold(III) hexafluorophosphate(V)]
action on human topoisomerase I (topoisomerase I): interferes with the normal operation of human topoisomerase I | concentrations at which the enzyme fully relaxes supercoiled DNA (topoisomerase I; 5U topoisomerase I): 0 to 50 nM | concentrations at which topoisomerase I exhibits abnormal and incomplete substrate relaxation (topoisomerase I; 5U topoisomerase I, up to 500 μM): ≥ 500 nM | one-dose screening result [1]: good cytotoxicity for the majority of the cell lines | IC50 ([5]; 66 ng kinetoplast DNA, 4 U topo II, read-out: IC50 (enzyme inhibition)): 4.8 µM | action on topo II ([5]; no trapped linear DNA cleavage products): pure catalytic inhibitor

F[P-](F)(F)(F)(F)F.OC1CN=Cc2ccc[n]2[Au+][n]2cccc2C=NC1 (stereo not drawn) [MA_AuOH, 2,2{(2-hydroxypropane-1,3-diyl)bis[nitrilo(E)methyl-ylidene]}bis(pyrrol-1-ido)gold(III) hexafluorophosphate(V)]
one-dose screening result [1]: not sufficiently active | Ka (calf thymus DNA) (calf thymus DNA; MA series: pH 7.0 phosphate buffer at 37° C.): 1.43(3) × 10^5 M^−1 | CC50 ([6]; 50% cell death, read-out: LC50 (the source's name)): > 100 µM | GI50 ([6]; 50% growth inhibition): > 100 µM | TGI (concentration for total growth inhibition) ([6]; 100% (total) growth inhibition, read-out: TGI or IC50): > 100 µM

ClC1CN=Cc2ccc3[n]2[Au+][n]2c(ccc2-c2nc4ccccc4nc2-3)C=NC1.F[P-](F)(F)(F)(F)F (stereo not drawn) [Compound 1.1Y^1e, {13-chloro-12,14-dihydro-6,9:17,20-diepimino[1,6]diazacyclo-heptadecino[12,13-β]quinoxalinato}gold(III) hexafluorophosphate(V)]
action on human topoisomerase I (topoisomerase I; listed as 1.1Y^1b): catalytic inhibitor of human topoisomerase I | Cytotoxicity (human cancer cell lines): active | GI50 (HeLa cells): ~100 nM | IC50 (HeLa cells; pH 7.0, 37° C.): ~3000 nM | Ka (calf thymus DNA) (calf thymus DNA; KA series: pH 7.0 15% DMSO-TRIS buffer at 25° C., listed as 1.1Y^1a): 2.8(2) × 10^6 M^−1 | Ka (calf thymus DNA) (calf thymus DNA; KA series: pH 7.0 15% DMSO-TRIS buffer at 25° C., listed as 1.1Y^1b): 1.49(8) × 10^6 M^−1

C1=[N+]2CC[N+]3=Cc4ccc[n]4[Au-]23[n]2cccc21.F[P-](F)(F)(F)(F)F [Compound 1.2a, 2,2′-{ethane-1,2-diylbis[nitrilo(E)methylylidene]}bis(pyrrol-1-ido)gold(III) hexafluorophosphate(V)]
hydrolysis [7]: water may displace a pyrrole ring from the Au(III) ion

C1=Cc2nc1c(-c1ccccc1)c1ccc([n-]1)c(-c1ccccc1)c1nc(c(-c3ccccc3)c3ccc([n-]3)c2-c2ccccc2)C=C1.[Au+3].[Cl-] [[Au(TPP)]Cl]
cytotoxicity to cancer cells versus non-cancerous cells ([2]; MTT assay, PBMCs and CCD-19Lu cells): at least ten-fold higher cytotoxicity
